Experimental data as given in patent publication US7317040B2, “Nitric oxide synthase inhibitor phosphate salt” (SmithKline Beecham Corporation, priority 2000, dated 2008).

Assay: Hygroscopicity: % weight change (w/w) against target relative humidity at 25 degrees C (moisture sorption isotherm)
Type: physicochemical
Description: The hygroscopicities of three samples of the compound of formula (I) monohydrate prepared in accordance with the above method were tested by measuring their % weight change (w/w) over a target relative humidity band of 0 to 90% at 25 degrees C.
To make these measurements, the following instruments and parameters were used: • Hiden IGASORP, Serial: IGA SA-040; • Hiden Intelligent Analyser, Model: HAS-022-120E, Serial: HALIGA-0042; • Flow=495 ml/min
The hydroscopicity of a sample of the compound of formula (I) trihydrate prepared in accordance with the above method was tested by measuring % weight change (w/w) over a target relative humidity band of 0 to 90% at 25° C.
The hygroscopicity of a sample of the dihydrochloride salt prepared in accordance with the above method was tested by measuring its % weight change (w/w) over a target relative humidity band of 30 to 80% at 25 degrees C.

SMILES | uptake of atmospheric moisture (below a relative humidity of 70%, three samples, FIGS. 1 to 3) | uptake of atmospheric moisture (above 50% relative humidity, FIG. 4) | mass change (at 55% relative humidity) | mass change (at 60% relative humidity) | mass change (at 65% relative humidity) | mass change (over a relative humidity range of 30-75%)
CC(=N)NCCSCC[C@H](N)C(=O)O.O.O=P(O)(O)O [compound of formula (I) monohydrate, (2S)-2-amino-4-{[2-(ethanimidoylamino)ethyl]thio}butanoic acid, compound with phosphoric acid, monohydrate] | no significant uptake of atmospheric moisture | – | – | – | – | –
CC(=N)NCCSCC[C@H](N)C(=O)O.Cl [dihydrochloride salt, (2S)-2-amino4-{[2-(ethanimidoylamino)ethyl]thio}butanoic acid, compound with hydrochloric acid] | – | rapid uptake of atmospheric moisture | about 11% | about 24% | about 32% | about 47%
